# Measured values: ChEMBL document CHEMBL1201862, “PubChem BioAssay data set” (2004)
#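 These data come from cells grown in 96-well plates and exposed to compound for 48 hours at five concentrations. GI50 = concentration required for 50% inhibition of growth.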 Active and inactive are the calls of the source. Cut-off read from the data, not from the text of the source: active = GI50 up to about 1.1 µM and inactive = higher.
# Key:
# Assay in all cases: inhibition of tumour cell growth, NCI panel, 48 h
# HCT-15 = test system: HCT-15
# HOP-62 = test system: HOP-62
# SK-MEL-28 = test system: SK-MEL-28
# M14 = test system: M14
# HCT-116 = test system: HCT-116
# SNB-19 = test system: SNB-19
# Hs-578T = test system: Hs-578T
# DU-145 = test system: DU-145
# CCRF-CEM = test system: CCRF-CEM
# SN12C = test system: SN12C
# OVCAR-4 = test system: OVCAR-4
# SF-268 = test system: SF-268
# NCI-H226 = test system: NCI-H226
# LOX IMVI = test system: LOX IMVI
# MDA-MB-435 = test system: MDA-MB-435
# SNB-75 = test system: SNB-75
# MCF7 = test system: MCF7
# MDA-N = test system: MDA-N
# K562 = test system: K562
# SF-295 = test system: SF-295
# PC-3 = test system: PC-3
# OVCAR-8 = test system: OVCAR-8
# HOP-92 = test system: HOP-92
# KM12 = test system: KM12
# HCC 2998 = test system: HCC 2998
# U-251 = test system: U-251
# T47D = test system: T47D
# HT-29 = test system: HT-29
# A549 = test system: A549
# SF-539 = test system: SF-539
# EKVX = test system: EKVX
# SK-OV-3 = test system: SK-OV-3
# OVCAR-5 = test system: OVCAR-5
# COLO 205 = test system: COLO 205
# SK-MEL-5 = test system: SK-MEL-5
# 786-0 = test system: 786-0
# RXF 393 = test system: RXF 393
# ACHN = test system: ACHN
# SR = test system: SR
# MDA-MB-231 = test system: MDA-MB-231
# HL-60 = test system: HL-60
# RPMI-8226 = test system: RPMI-8226
# MOLT-4 = test system: MOLT-4
# NCI-H23 = test system: NCI-H23
# TK-10 = test system: TK-10
# UACC-62 = test system: UACC-62
# UO-31 = test system: UO-31
# NCI/ADR-RES = test system: NCI/ADR-RES
# OVCAR-3 = test system: OVCAR-3
# IGROV-1 = test system: IGROV-1
# NCI-H522 = test system: NCI-H522
# UACC-257 = test system: UACC-257
# CAKI-1 = test system: CAKI-1
# SK-MEL-2 = test system: SK-MEL-2
# NCI-H460 = test system: NCI-H460
# SW-620 = test system: SW-620
# A498 = test system: A498
# Malme-3M = test system: Malme-3M
compound,measurement,setting,value
Cc1nc2cccc(F)c2c(=O)n1-c1nnc(C2CC2)s1,GI50,HCT-15,> 10 µM
same,GI50,HOP-62,> 10 µM (inactive)
same,GI50,SK-MEL-28,> 10 µM (inactive)
same,GI50,M14,> 10 µM (inactive)
same,GI50,HCT-116,> 10 µM (inactive)
same,GI50,SNB-19,> 10 µM (inactive)
same,GI50,Hs-578T,> 10 µM (inactive)
same,GI50,DU-145,> 10 µM (inactive)
same,GI50,CCRF-CEM,> 10 µM (inactive)
same,GI50,SN12C,> 10 µM (inactive)
same,GI50,OVCAR-4,> 10 µM (inactive)
same,GI50,SF-268,> 10 µM (inactive)
same,GI50,NCI-H226,> 10 µM (inactive)
same,GI50,LOX IMVI,> 10 µM (inactive)
same,GI50,MDA-MB-435,> 10 µM (inactive)
same,GI50,SNB-75,> 10 µM (inactive)
same,GI50,MCF7,> 10 µM (inactive)
same,GI50,MDA-N,> 10 µM (inactive)
same,GI50,K562,> 10 µM (inactive)
same,GI50,SF-295,> 10 µM (inactive)
same,GI50,PC-3,> 10 µM (inactive)
same,GI50,OVCAR-8,> 10 µM (inactive)
same,GI50,HOP-92,> 10 µM (inactive)
same,GI50,KM12,> 10 µM (inactive)
same,GI50,HCC 2998,> 10 µM (inactive)
same,GI50,U-251,> 10 µM (inactive)
same,GI50,T47D,> 10 µM (inactive)
same,GI50,HT-29,> 10 µM (inactive)
same,GI50,A549,> 10 µM (inactive)
same,GI50,SF-539,> 10 µM (inactive)
same,GI50,EKVX,> 10 µM (inactive)
same,GI50,SK-OV-3,> 10 µM (inactive)
same,GI50,OVCAR-5,> 10 µM (inactive)
same,GI50,COLO 205,> 10 µM (inactive)
same,GI50,SK-MEL-5,> 10 µM (inactive)
same,GI50,786-0,> 10 µM (inactive)
same,GI50,RXF 393,> 10 µM (inactive)
same,GI50,ACHN,> 10 µM (inactive)
same,GI50,SR,> 10 µM (inactive)
same,GI50,MDA-MB-231,> 10 µM (inactive)
same,GI50,HL-60,> 10 µM (inactive)
same,GI50,RPMI-8226,> 10 µM (inactive)
same,GI50,MOLT-4,> 10 µM (inactive)
same,GI50,NCI-H23,> 10 µM (inactive)
same,GI50,TK-10,> 10 µM (inactive)
same,GI50,UACC-62,> 10 µM (inactive)
same,GI50,UO-31,> 10 µM (inactive)
same,GI50,NCI/ADR-RES,> 10 µM (inactive)
same,GI50,OVCAR-3,> 10 µM (inactive)
same,GI50,IGROV-1,> 10 µM (inactive)
same,GI50,NCI-H522,> 10 µM (inactive)
same,GI50,UACC-257,> 10 µM (inactive)
same,GI50,CAKI-1,> 10 µM (inactive)
same,GI50,SK-MEL-2,> 10 µM (inactive)
same,GI50,NCI-H460,> 10 µM (inactive)
same,GI50,SW-620,> 10 µM (inactive)
COc1ccc(Cn2nc(OCc3ccccc3)c3cc([N+](=O)[O-])ccc32)cc1,GI50,HCT-15,> 100 µM
same,GI50,HOP-62,> 100 µM (inactive)
same,GI50,SK-MEL-28,> 100 µM (inactive)
same,GI50,M14,> 100 µM (inactive)
same,GI50,SNB-19,> 100 µM (inactive)
same,GI50,Hs-578T,> 100 µM (inactive)
same,GI50,DU-145,> 100 µM (inactive)
same,GI50,CCRF-CEM,> 100 µM (inactive)
same,GI50,SN12C,> 100 µM (inactive)
same,GI50,SF-268,> 100 µM (inactive)
same,GI50,NCI-H226,> 100 µM (inactive)
same,GI50,LOX IMVI,> 100 µM (inactive)
same,GI50,MDA-MB-435,> 100 µM (inactive)
same,GI50,SNB-75,> 100 µM (inactive)
same,GI50,MCF7,> 100 µM (inactive)
same,GI50,MDA-N,> 100 µM (inactive)
same,GI50,K562,> 100 µM (inactive)
same,GI50,SF-295,> 100 µM (inactive)
same,GI50,OVCAR-8,> 100 µM (inactive)
same,GI50,KM12,> 100 µM (inactive)
same,GI50,HCC 2998,99.3 µM (inactive)
same,GI50,T47D,> 100 µM (inactive)
same,GI50,HT-29,> 100 µM (inactive)
same,GI50,A549,> 100 µM (inactive)
same,GI50,SF-539,> 100 µM (inactive)
same,GI50,SK-OV-3,> 100 µM (inactive)
same,GI50,OVCAR-5,> 100 µM (inactive)
same,GI50,SK-MEL-5,> 100 µM (inactive)
same,GI50,786-0,> 100 µM (inactive)
same,GI50,RXF 393,> 100 µM (inactive)
same,GI50,ACHN,> 100 µM (inactive)
same,GI50,SR,> 100 µM (inactive)
same,GI50,MDA-MB-231,> 100 µM (inactive)
same,GI50,HL-60,> 100 µM (inactive)
same,GI50,RPMI-8226,> 100 µM (inactive)
same,GI50,MOLT-4,> 100 µM (inactive)
same,GI50,NCI-H23,> 100 µM (inactive)
same,GI50,A498,> 100 µM (inactive)
same,GI50,TK-10,> 100 µM (inactive)
same,GI50,UACC-62,> 100 µM (inactive)
same,GI50,NCI/ADR-RES,> 100 µM (inactive)
same,GI50,OVCAR-3,> 100 µM (inactive)
same,GI50,IGROV-1,> 100 µM (inactive)
same,GI50,NCI-H522,> 100 µM (inactive)
same,GI50,UACC-257,> 100 µM (inactive)
same,GI50,Malme-3M,> 100 µM (inactive)
same,GI50,SK-MEL-2,> 100 µM (inactive)
same,GI50,NCI-H460,> 100 µM (inactive)
same,GI50,SW-620,> 100 µM (inactive)
